We go through three compounds from publication PMC8419995, “In vitro and in vivo efficacy of thiacloprid against Echinococcus multilocularis” (Parasites & Vectors, 2021).

The test system of experiment [1] is IL-2, IL-4, IL-10 and IgE. As to the kind of experiment: ELISA of cytokines and IgE in infected mice. In kind it is in vivo. To be noted: infected BALB/c mice, 6 weeks oral treatment. The procedure: (§1) In vitro-grown metacestode vesicles were pressed through a 500 µm mesh and washed three times with sterile PBS. The parasite tissue was then taken up in an equal volume of sterile PBS. Each mouse was intraperitoneally injected with 200 μl suspension. Seven mice were injected with 200 μl PBS as the control group. Twenty-eight infected mice were randomly distributed into four groups (7 mice/group): the untreated group was not administered any drug; the ABZ group was treated with ABZ orally (100 mg/kg/day); and the Thia15 group and Thia30 group received thiacloprid orally (15 mg/kg/day and 30 mg/kg/day). Treatments of mice started 2 weeks post-infection, and treatments were administered daily for 6 weeks. After 6 weeks of treatment, whole blood via the orbital sinus was collected from mice and the animals were euthanized by CO2. Blood samples were incubated at 37 °C for 1 h and centrifuged at 3500 rpm for 10 min at 4 °C. The serum was harvested and stored at –20 °C for IL-2, IL-4, IL-10 and IgE detection. All metacestode tissues were collected, and the total wet weight of metacestodes per mice was determined. Furthermore, the content of cytokines in microcyst fluid was detected by enzyme-linked immunosorbent assay (ELISA). Several metacestode tissue specimens were processed for transmission electron microscopy (TEM) and histopathological experiments.
ELISA was employed to detect serum IL-2, IL-4, IL-10 and IgE following the manufacturer's instructions. Mouse collagen I and collagen III ELISA kits were used to measure the levels of collagen I and collagen III in the cell culture supernatant after intervention with thiacloprid. All ELISA kits were provided by Elabscience Biotechnology Co., Ltd., Wuhan, China. The OD value at 450 nm was read with a Tecan Infinite M200 PRO enzyme reader (Männedorf, Switzerland), and the concentration was calculated according to the standard curve.
For orientation: In an ELISA, binding on a coated surface is turned into a signal by an enzyme label.

In experiment [2] the test system is collagen I and III, MMP1, MMP3, MMP9, MMP13. As to the kind of experiment: Collagen and MMP expression in the host-lesion microenvironment (TEM, Sirius red, qPCR, western blot). To be noted: infected BALB/c mice, 6 weeks oral treatment. The class given is in vivo. Here is the method: The metacestodes were fixed with 4% paraformaldehyde and embedded in paraffin to make sections with a thickness of […]. The sections were dewaxed with water, stained with Picrosirius red for 10 min, rinsed and dehydrated with anhydrous ethanol, and sealed with neutral balsam after the xylene was transparent. Each section of 400× visual field image was randomly collected. The ratio of the area of all images collected to the area of the visual field was measured using the ImageJ analysis system, and the percentage of collagen fibre was calculated.
The variations in the microstructure of the protoscoleces or metacestodes were observed under an electron microscope. […] They were washed twice in PBS and then fixed for 3 h with 2.5% glutaraldehyde (pH = 7.2); next, they underwent 2 h post-fixation in 2% OsO4 (SPI-CHEM, West Chester, PA, USA). Subsequently, the samples were washed in double-distilled water and treated with 1% uranyl acetate for 25 min. After the samples were washed again in double-distilled water, dehydration was conducted in ethanol at continuous gradients (30–50–70–80–90–95–100%) over a period of 10 min. For SEM analysis, the dehydrated samples were dipped into hexamethyldisiloxane and then air-dried in a fume hood. The sample was observed under a Hitachi SU8100 scanning electron microscope (Tokyo, Japan) after gold spraying. For TEM analysis, the dehydrated samples passed through a dehydrating agent, and an epoxy resin (SPI-CHEM) permeated and polymerized at 60 °C overnight. A 50-nm ultra-thin section was prepared and then loaded on a 300-mesh copper grid. It was stained with uranyl acetate and lead citrate (SPI-CHEM). The sample was observed under a Hitachi HT7700 transmission electron microscope. To reduce the bias, electron microscopy was observed by professionals in the case of an unknown group.
Total RNA was extracted with TRIzol Reagent (Thermo Fisher Scientific, Waltham, MA, USA) according to the manufacturer’s instructions. The purity and concentrations of RNA were quantified using NanoDrop 2000 absorbance measurements at 260/280 nm. Total RNA was converted into cDNA sequences using the FastKing gDNA Dispelling RT SuperMix Kit (TIANGEN Biotech), and RT-qPCR was performed using the RealUniversal Color PreMix Kit (TIANGEN Biotech) on an ABI QuantStudio 5 system (Applied Biosystems, Waltham, MA, USA). The specific primers are shown in Additional file 4: Table S1. The PCR cycling conditions were as follows: pre-denaturation at 95 °C for 15 min followed by 40 cycles at 95 °C for 10 s and 60 °C for 34 s. The relative mRNA expression levels were quantified using the 2^−ΔΔCT method. RPS18 served as an internal control.
A total protein extraction kit (Solarbio) was used to extract cell or tissue total protein. The protein concentration was determined by the protein quantitative assay kit (Thermo Fisher Scientific). Then, electrophoresis was performed with 20–50 μg of protein sample. The protein was separated by sodium dodecyl sulfate polyacrylamide gel electrophoresis (SDS-PAGE) and transferred to a 0.22 μm PVDF membrane (Merck Millipore, Darmstadt, Germany). The PVDF membrane was blocked with 5% of nonfat powdered milk in Tris-buffered saline Tween 20 (TBST) for 1 h at room temperature. The membrane incubation with primary antibodies was performed at 4 °C overnight. The antibody information is listed in Additional file 5: Table S2. The membrane was washed with TBST and incubated with HRP-labeled secondary antibodies (1:5000, Abclonal, Wuhan, China) for 1 h at room temperature. Blotted membranes were visualized using enhanced chemiluminescence reagents (Thermo Fisher Scientific). Protein expression was depicted as the intensity of each protein relative to that of β-actin using ImageJ software.

Experiment [3] deals with E. multilocularis metacestodes. As to the kind of experiment: In vivo treatment of mice experimentally infected with E. multilocularis metacestodes. Set-up: species or system Echinococcus multilocularis. The procedure: as §1
Tissues from experimental animals were washed in PBS and fixed in 4% paraformaldehyde at room temperature for […]. On the next day, they were dehydrated, embedded, and sliced into 5-μm sections. After dewaxing and dehydrating, sections were stained with hematoxylin for 2–5 min, and re-stained with eosin for 15 s. They were sealed with neutral gum and observed under a BX51 microscope (Olympus, Tokyo, Japan).
A Periodic Acid Schiff Stain Kit (Solarbio, Beijing, China) was used to show the PAS-positive laminated layer characteristic of E. multilocularis metacestodes. The section (5 μm) was dewaxed in xylene and rehydrated in 100%, 95%, 80%, and 75% alcohol baths. Staining was then carried out according to the kit instructions.

In experiment [4] the test system is acetylcholinesterase. As to the kind of experiment: Acetylcholinesterase activity (Ellman) in extracts of protoscoleces, metacestodes and germinal cells. The conditions noted are these: extract; thiacloprid 5 μM, 37 °C 10 min; BW284c51 positive control. In kind it is biochemical, Echinococcus multilocularis. Here is the method:
The effects of thiacloprid on the acetylcholinesterase activity of E. multilocularis protoscoleces, metacestodes and germinal cells were determined according to a previously described method. The protoscoleces, metacestode and germinal cells were washed twice with PBS and homogenized with an electric homogenizer in precooled PBS. Centrifugation of the homogenates was performed at 100,000×g for 30 min. The protein concentration of the supernatant was determined by the modified Lowry method according to the instructions, and the concentration was adjusted to 2 mg/ml. Thiacloprid (5 μM) was added to the extract and incubated at 37 °C for 10 min. The extract was supplemented with 0.1% DMSO as control. Subsequently, acetylcholinesterase activity was assessed according to Ellman’s procedure using a microplate with 260 µl of 0.1 M PBS buffer pH 8.0, 10 µl of 10 mM dithiobisnitrobenzoic acid solution, 2.5 µl of 75 mM substrate (acetylthiocholine iodide) and 25 µl of the sample treated with thiacloprid. The OD increment was measured at 412 nm using an Infinite M200 PRO reader (Tecan). Each experiment was conducted three times. BW284c51 (CAS number: 402-40-4, Sigma) was used as a positive control.

Experiment [5] relates to E. multilocularis germinal cells. As to the kind of experiment: CellTiter-Glo viability assay on germinal cells. In kind it is cell-based, Echinococcus multilocularis. To be noted: Echinococcus multilocularis, 120 h; 5 days; CellTiter-Glo; read-out: IC50 against germinal cells. Here is the method:
To evaluate the activity of thiacloprid against parasitic stem cells, germinal cells from in vitro metacestode vesicles were investigated as described by Spiliotis et al.. Briefly, 20 units of cells were distributed into a black 384-well plate. Different concentrations of thiacloprid or PZQ (0, 0.06, 1.2, 2.5, 5, 10, 20, 40, 80 and 160 μM) were added to the cells. After culture at 37 °C for 5 days under a humid nitrogen atmosphere, 25 μl CellTiter-Glo containing 1% Triton X-100 was added. The plates were incubated at room temperature in the dark for 15 min. After the total destruction of the cellular aggregates, luminescence was measured using an Infinite M200 PRO reader (Tecan), and 0 μM values were set to 100% viability. The IC50 values were calculated using an online IC50 calculator after logit-log transformation. Four independent replicates were conducted.
Background: ATP-based viability assays read luminescence as a measure of living cells.

Experiment [6] deals with Human foreskin fibroblasts (HFF). As to the kind of experiment: alamarBlue cytotoxicity assay, HFF. The class given is cell-based. To be noted: Fibroblast, 120 h, 5 days. Here is the method:
(§2) An alamarBlue assay was used to assess the toxicity of thiacloprid to confluent and pre-confluent mammalian cells in vitro [29]. Human foreskin fibroblasts (HFF, Procell) and rat hepatoma cells (RH, Procell) were seeded into 96-well cell culture plates in DMEM supplemented with 10% FBS and 1% penicillin–streptomycin at 37 °C and 5% CO2. For detecting the growth inhibitory effects of confluent cells, HFF and RH cells were seeded at 10,000 cells per well and 50,000 cells per well, respectively. After overnight culture, thiacloprid or PZQ was added and diluted in serial concentrations (0, 0.6, 1.2, 2.5, 5, 10, 20, 40, 80 and 160 μM). For detecting growth inhibitory effects on proliferating cells, cells were seeded at 1000 (HFF) and 5000 (RH) cells per well. Thiacloprid was added after 5 h of cell attachment. To measure the viability of the cells after treatment for 5 days, the alamarBlue assay was employed and viability calculated as described previously.
In general terms: The colour change of resazurin is a common sign of viable cells or microbes.

In experiment [7] the test system is E. multilocularis metacestodes. As to the kind of experiment: PGI assay (phosphoglucose isomerase release) on metacestode vesicles. In kind it is cell-based, Echinococcus multilocularis. The conditions noted are these: Echinococcus multilocularis, 120 h, read-out: EC50 against E. multilocularis metacestode by the PGI assay. Here is the method: The efficacy of thiacloprid against the E. multilocularis metacestode was evaluated by applying a phosphoglucose isomerase (PGI) assay that measures the release of the enzyme phosphoglucose isomerase upon physical impairment of metacestodes. In brief, medium without phenol red (DMEM, 1% penicillin/streptomycin sulfate, 2 mM L-glutamine) was added to the same volume of vesicles and distributed to 48-well (12–15 per vesicles) plates. Subsequently, metacestodes were incubated for 5 days with different concentrations (0, 0.06, 1.2, 2.5, 5, 10, 20, 40, 80 and 160 μM) of thiacloprid or praziquantel (PZQ), after which PGI release was quantified exactly as described in Stadelmann et al.. Triton X-100 (0.1% in PBS) was applied as a positive control (maximal release of vesicle fluid). Each condition was tested in biological triplicate. After 5 days of incubation, 200 μl medium supernatant was collected from each well and stored at − 20 °C until further measurements were performed. PGI measurements were performed as described earlier, except that an Infinite M200 PRO reader (Tecan, Männedorf, Switzerland) was used to measure the increase in absorbance at 340 nm. PGI activity was calculated using the EC50 calculator (https://www.aatbio.com/tools/ec50-calculator) from the linear regression of the enzyme reaction over time and presented as a percentage relative to the values obtained by treatment of vesicles with 0.1% Triton X-100.

The test system of experiment [8] is Reuber rat hepatoma (RH) cells. As to the kind of experiment: alamarBlue cytotoxicity assay, RH cells. The class given is cell-based. To be noted: 120 h, 5 days. The procedure:
as §2

Read-outs that look alike come from different tables or passages of the source.

For `CCCSc1ccc2nc(NC(=O)OC)[nH]c2c1` [ABZ, albendazole], in experiment [1], the “Expression of IL-2, IL-4 and IL-10 in serum compared with the untreated group” value is reported as “consistent variations”; the “Expression of IgE in serum compared with the untreated group” value is reported as “consistent variations”. Further, the “Collagen fiber deposition in the host-lesion microenvironment (TEM)” value in experiment [2] is recorded as “can promote”. Besides, in experiment [2] (qPCR), the “mRNA expression of MMP1, MMP3, MMP9 and MMP13 in the microenvironment” value is listed as “significantly inhibited”. Besides, the “mRNA and protein expression levels of collagen I and III in the host-lesion microenvironment” value in experiment [2] (qPCR, western blot) is “increased”. Also, the “Protein expression levels of MMP1, MMP3, MMP9 and MMP13” value in experiment [2] (western blot) is given as “decreased”. Further, the “HE staining of metacestodes from treated mice” value in experiment [3] (6 weeks oral treatment, thiacloprid 15 or 30 mg/kg/day, ABZ 100 mg/kg/day) is given as “germinal cells could still be observed”. Also, in experiment [3] (infected BALB/c mice, ABZ 100 mg/kg/day orally, 6 weeks, untreated 6.49 ± 1.18 g), the “Wet weight of the metacestodes” value was determined as 1.85 ± 0.94 g.

On to `C=CC[N+](C)(C)c1ccc(CCC(=O)CCc2ccc([N+](C)(C)CC=C)cc2)cc1.[Br-].[Br-]` [BW284c51], for which, in experiment [4], the “Acetylcholinesterase activity in protoscoleces, metacestode vesicles and germinal cells” value is “inhibited”.

On to `O=C(C1CCCCC1)N1CC(=O)N2CCc3ccccc3C2C1` (stereo not drawn) [PZQ, praziquantel], for which the IC50 in experiment [5] was 2.59 ± 0.33 µM; in experiment [6] (confluent cells, read-out: IC50 on confluent HFF), 53.2 ± 11.1 µM; in experiment [6] (pre-confluent cells, read-out: IC50 on pre-confluent HFF), 6.71 ± 1.88 µM; in experiment [8] (confluent cells, read-out: IC50 on confluent RH cells), 25.3 ± 6.32 µM; in experiment [8] (pre-confluent cells, read-out: IC50 on pre-confluent RH cells), 11.6 ± 3.52 µM. Further, in experiment [7], the EC50 came out at 7.41 ± 2.09 µM.

Broadly, the IC50 is the concentration at which inhibition is half-maximal. Usually EC50 stands for the concentration giving half of the maximal effect.
